From patent US20250332101A1, “Composition” (priority 2018, published 2025)
Entries after “also recorded” stand apart in the source; their conditions may differ.

Key:
Aqueous solubility = type: physicochemical
HCE-S tight junctions = assay: HCE-S transwell barrier: transepithelial resistance (TER); type: cell-based, human; settings: 2 h exposure, up to 300 μM 3-OH-C12 HSL
Protocol: (§1) HCE-S cells (Immortalized Human Corneal Epithelial Cells) were cultured as a monolayer in 90% DMEM supplemented with 10% heat inactivated FBS and penicillin-streptomycin (100 U/mL). Cells were cultured at 37° C. in a humidified incubator with 5% CO2 and growth medium was replaced every three days. HCE-S populations were grown to 80% confluence before passage to 20% using 0.25% Trypsin-EDTA. Prior to each experiment cell populations were estimated using a haemocytometer and trypan blue exclusion assay.
HCE-S barrier models for transcytosis assays were prepared using an adaptation of a previously described method (Reichl (2008)). HCE-S cells (5×10^4 cells/well) were seeded on transwell inserts (polycarbonate, 3 μm pore size, 1.13 cm^2) and maintained for 7 days refreshing the medium in the apical and basal chambers every second day. […] Prior to each experiment culture medium was replaced with phenol red free DMEM and barrier integrity measured via transepithelial resistance (TER). […]
FIGS. 21A-21D and FIGS. 22Ai-22Biii. Baseline TER was recorded before addition of […] 3-OH-C12 HSL in micelles (assuming 100% drug loading) or equivalent concentrations of micelles only (vehicle control) dissolved in phenol-red free culture medium for 2 h. After this time, TER was recorded before culture medium was replaced with fresh. […]

[1] = tested on: HCE-S transwell barrier model; assay: HCE-S transwell barrier: transcytosis of model drugs; type: cell-based, human; settings: pre-treatment of HCE-S for 2 h with 300 μM
Protocol: HCE-S barrier models for transcytosis assays were prepared using an adaptation of a previously described method (Reichl (2008)). HCE-S cells (5×10^4 cells/well) were seeded on transwell inserts (polycarbonate, 3 μm pore size, 1.13 cm^2) and maintained for 7 days refreshing the medium in the apical and basal chambers every second day. After this time cells were cultured for a further 10 days at an apical air interface to encourage development of a multilayer barrier. Prior to each experiment culture medium was replaced with phenol red free DMEM and barrier integrity measured via transepithelial resistance (TER). […]
FIGS. 21A-21D and FIGS. 22Ai-22Biii. Baseline TER was recorded before addition of […] 3-OH-C12 HSL in micelles (assuming 100% drug loading) or equivalent concentrations of micelles only (vehicle control) dissolved in phenol-red free culture medium for 2 h. After this time, TER was recorded before culture medium was replaced with fresh. To the apical chamber, a model drug molecule (FITC-dextran or Avastin) was added and the concentration of this agent in the basolateral chamber was measured either by monitoring FITC fluorescence (FITC-dextran) versus a standard curve of known concentrations or using a commercially available Avastin sandwich ELISA kit as previously described (Davis et al. (2014)). […]

[2] = tested on: immortalized human corneal epithelial cell line (HCE-S); assay: Cell toxicity test in corneal epithelial cells; type: cell-based; settings: compared with 3-oxo-C12 HSL and Benzalkonium chloride (BAK)
Protocol: as §1

[3] = compared with 3-oxo-C12 HSL; cited from earlier work
[4] = tested on: RGC in OHT Dark Agouti (DA) rats; type: in vivo; settings: topical eye drops from two days prior to induction, three weeks, versus OHT only
[5] = topical formulation, Sigurdsson et al; cited from earlier work
[6] = tested on: New Zealand albino male rabbits (eye); settings: known; rabbits and humans; cited from earlier work

## COc1cc(C=CC(=O)CC(=O)C=Cc2ccc(O)c(OC)c2)ccc1O [curcumin, 1,7-bis-(4-hydroxy-3-methoxyphenyl)-1,6-heptadiene-3,5-dione]
Aqueous solubility; 2 mg/mL curcumin
  solubility in distilled water: very poorly soluble

## CCCCCCCCCC(O)CC(=O)NC1CCOC1=O (centres unmarked) [3-OH-C12 HSL, 3-hydroxydodecanoyl homoserine lactone]
HCE-S tight junctions
  disruption of tight junctions (TER, percentage of control): reversible disruption of Tight junctions
Aqueous solubility
  water solubility: low water solubility
[1]
  transcytosis of 40 kDa FITC Dextran: significantly enhanced
  transcytosis of 149 kDa Avastin: significantly enhanced
[2]
  cell toxicity (tolerability): better tolerated
[3]
  resistance to hydrolysis: higher resistance to hydrolysis

## COc1cc(/C=C/C(=O)CC(=O)/C=C/c2ccc(O)c(OC)c2)ccc1O [FC]
[4]
  RGC density / RGC loss (neuroprotective effect): did not have this effect; also recorded: no significant protective effect; also recorded: not FC treatment, significantly reduced RGC loss

## C[C@@H]1C[C@H]2[C@@H]3CCC4=CC(=O)C=C[C@]4(C)[C@@]3(F)[C@@H](O)C[C@]2(C)[C@@]1(O)C(=O)CO [dexamethasone]
[5]
  entry into the retina by systemic absorption route: 40%
  entry into the retina via topical penetration: 60%

## Benzalkonium chloride [BAK]
[6]
  ocular irritation: potent ocular irritation
